Like-named read-outs stand apart in the source and are kept apart here.

A short description of data set [1]: hydrophilia from Rf values / retention factors of TLC and HPLC analysis. The data set is classed as physicochemical. On the procedure:
TLC analysis: Streptomyces viridochromogenes Tü57 and the mutants GW-4 and GW4-AM1 were incubated for three days. The cultures were filtered off, and the filtrate was applied to a solid-phase extraction cartridge (SepPakC18, Waters). The cartridge was eluted with a gradient between 10% and 100% methanol in water. Avilamycin derivatives eluted with the fraction that contains 60-70% methanol. After extraction with ethyl acetate and withdrawal of the solvent, the avilamycin derivatives were dissolved in methanol once again and measured by means of TLC on silica gel plates (silica gel 60 F254, Merck), with methylene chloride/methanol (9:1, v/v) as the solvent. Avilamycin derivatives had been detected after treatment with anisaldehyde/H2SO4.
An analytical HPLC-UV was carried out on a Hewlett Packard 1090 Liquid Chromatograph with a photodiode array detector and a HP-ODS-Hypersil 5 μm, 200×2 mm column. The sequence of the solutions was as follows: Solution A, 0.04M (NH4)2HPO4 pH 7.0 buffer; Solution B, 100% methanol; a non-linear gradient, with 30-62% of Solution B distributed over a period of 25 min at a flow rate of 0.2 mL/min.
(§1) Furthermore, gavibamycin A3 was tested with regard to its antibiotic effect. […] The non-chlorinated gavibamycin derivatives also have antibiotic activity.

Data set [2] has as its system various Staphylococcus aureus strains. Briefly: preliminary tests / first MIC experiments. Type of data set: cell-based. On the procedure: (§2) The antimicrobial spectrum of gavibamycin A3 was determined and compared with that of avilamycin A. In this context, the “broth microdilution” method in accordance with the regulations of the national committee for clinical laboratory standards (NCCLS) was used.
as §1

Data set [3] is described as follows: parenteral administration to a patient, tolerance. The data set is classed as in vivo. How it is done:
5 g gavibamycin A3 are dissolved in 1 l water for injection purposes, if necessary using a pharmaceutically well tolerated solubility enhancer, at room temperature, and subsequently adjusted to isotonic conditions for injection purposes by adding water-free glucose.
In an average patient, with a body weight of approximately 65 kg, 0.5 mL of this solution is administered, in other words 2.5 mg or approximately […].

Data set [4] has as its system Streptococcus pneumoniae ATCC49619. The data set is described as follows: broth microdilution antimicrobial spectrum (NCCLS). Type of data set: cell-based. On the procedure: as §2
In data set [5] the test system is Enterococcus faecalis H-7-6. Briefly: broth microdilution antimicrobial spectrum (NCCLS). Type of data set: cell-based. On the procedure:
as §2
A general note: Broth dilution looks for growth in wells or tubes with falling amounts of substance.

Data set [6] deals with Staphylococcus aureus Q48-1.2.1. Briefly: broth microdilution antimicrobial spectrum (NCCLS). The data set is classed as cell-based. On the procedure: as §2
The subject of data set [7] is Bacillus subtilis. The data set is described as follows: broth microdilution antimicrobial spectrum (NCCLS). Type of data set: cell-based. How it is done:
as §2

Data set [8] has as its system Enterococcus faecalis ATCC29212. Briefly: broth microdilution antimicrobial spectrum (NCCLS). Type of data set: cell-based. On the procedure:
as §2

Data set [9] deals with Staphylococcus aureus ATCC6538P. The data set is described as follows: broth microdilution antimicrobial spectrum (NCCLS). The data set is classed as cell-based. How it is done:
as §2

Data set [10] has as its system Staphylococcus aureus ATCC29213. Briefly: broth microdilution antimicrobial spectrum (NCCLS). Type of data set: cell-based. On the procedure: as §2
For data set [11], the system named is Staphylococcus aureus ATCC6538. The data set is described as follows: broth microdilution antimicrobial spectrum (NCCLS). The data set is classed as cell-based. How it is done: as §2
For data set [12], the system named is multiresistant Staphylococcus aureus strains. The following applies: Zähner, 1999; cited from earlier work.

With `COCC1OC(OC2OCC3OC4(OC3C2OC(=O)C(C)C)OC(C)C(O)(C(C)O)C2OCOC24)C(OC)C(O)C1OC1OC(C)C(OC)C(OC2CC3(C)OC4(CC(O)C(OC5CC(O)C(OC(=O)c6c(C)c(Cl)c(O)c(Cl)c6O)C(C)O5)C(C)O4)OC3C(C)O2)C1O` (centres unmarked) [gavibamycin A3], the “hydrophilia compared with avilamycin A” value in [1] was “somewhat more hydrophilic than avilamycin A”; in data set [1] (listed as gavibamycin), “much more hydrophilic”. In addition, the “activity against various Staphylococcus aureus strains compared with avilamycin A” value in data set [2] is “somewhat stronger activity”; in [2] (listed as gavibamycin) it was “somewhat more active than avilamycin A”. The “tolerance of higher dosage” value in data set [3] (human, in vivo) is “toxicologically unproblematic and was well tolerated”. Besides, the “tolerance of the administered dose” value in data set [3] (patient approx. 65 kg, 0.5 mL of 5 g/l solution, 2.5 mg, parenteral) is “well tolerated by the patient”. Also, the antibiotic activity entry in [4], in [5], in [6], in data set [7], in [8] and in [9] was “demonstrate antibiotic activity” throughout. In addition, the antibiotic activity result in [10] and in data set [11] was “demonstrate antibiotic activity” throughout.
For the compound `COC[C@H]1O[C@@H](OC2OC[C@@H]3O[C@]4(O[C@H]3[C@H]2OC(=O)C(C)C)O[C@H](C)[C@@](O)(C(C)=O)[C@@H]2OCO[C@H]24)[C@@H](OC)[C@@H](O)[C@@H]1O[C@@H]1O[C@H](C)[C@H](OC)[C@H](O[C@H]2C[C@@]3(C)OC4(C[C@@H](O)[C@H](O[C@H]5C[C@@H](O)[C@H](OC(=O)c6c(C)c(Cl)c(O)c(Cl)c6OC)[C@@H](C)O5)[C@@H](C)O4)O[C@@H]3[C@@H](C)O2)[C@H]1O` (some centres unmarked) [avilamycin A, reference compound], the “activity against multiresistant Staphylococcus aureus strains” value in [12] was “excellent activity”. The antibiotic activity result in data set [4], in data set [5], in data set [6], in [7], in data set [8] and in data set [9] was “demonstrate antibiotic activity” in each case. In addition, the antibiotic activity result in data set [10] and in data set [11] was “demonstrate antibiotic activity” each time.

The values are drawn from patent publication US20040006026A1, “Avilamycin derivatives” (Combinature Biopharm AG, priority 2001, published 2004).
